Measurements reported in PubChem BioAssay (NCI).
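The compound was tested at five concentrations on cells cultured in 96-well plates, with a 48-hour exposure period. GI50: concentration for 50% inhibition of growth. TGI: total growth inhibition.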

Tests used:
Assay in all cases: NCI tumour cell line growth inhibition, 48 h; in the data active = GI50 below about 0.43 µM; inactive = the rest
[1] = tested on: CCRF-CEM leukemia
[2] = tested on: 786-0 renal
[3] = tested on: HCT-15 colon
[4] = tested on: MDA-MB-435
[5] = tested on: SK-OV-3 ovarian
[6] = tested on: UACC-62 melanoma
[7] = tested on: SF-268 CNS
[8] = tested on: SK-MEL-28 melanoma
[9] = tested on: OVCAR-5 ovarian
[10] = tested on: NCI/ADR-RES ovarian
[11] = tested on: A498 renal
[12] = tested on: CAKI-1 renal
[13] = tested on: HOP-62 NSCLC
[14] = tested on: OVCAR-8 ovarian
[15] = tested on: HCT-116 colon
[16] = tested on: SNB-75 CNS
[17] = tested on: K-562 leukemia
[18] = tested on: SF-295 CNS
[19] = tested on: OVCAR-4 ovarian
[20] = tested on: HCC-2998 colon
[21] = tested on: T-47D breast
[22] = tested on: RPMI-8226 leukemia
[23] = tested on: U251 CNS
[24] = tested on: RXF 393 renal
[25] = tested on: SK-MEL-5 melanoma
[26] = tested on: DU-145 prostate
[27] = tested on: KM12 colon
[28] = tested on: TK-10 renal
[29] = tested on: SW-620 colon
[30] = tested on: IGROV1 ovarian
[31] = tested on: SK-MEL-2 melanoma
[32] = tested on: UO-31 renal
[33] = tested on: HOP-92 NSCLC
[34] = tested on: ACHN renal
[35] = tested on: COLO 205 colon
[36] = tested on: BT-549 breast
[37] = tested on: A549 NSCLC
[38] = tested on: PC-3 prostate
[39] = tested on: HT29 colon
[40] = tested on: UACC-257 melanoma
[41] = tested on: SNB-19 CNS
[42] = tested on: MCF7 breast
[43] = tested on: NCI-H23 lung
[44] = tested on: OVCAR-3 ovarian
[45] = tested on: HS 578T breast
[46] = tested on: M14 melanoma
[47] = tested on: MDA-MB-231 breast
[48] = tested on: NCI-H522 lung
[49] = tested on: MOLT-4 leukemia
[50] = tested on: EKVX NSCLC
[51] = tested on: LOX IMVI melanoma
[52] = tested on: SF-539 CNS
[53] = tested on: SN12C renal
[54] = tested on: SR leukemia
[55] = tested on: MALME-3M melanoma
[56] = tested on: NCI-H226 lung
[57] = tested on: NCI-H460 lung
[58] = tested on: HL-60(TB) leukemia

O=C(CN1C(=O)CC(c2ccccc2)(c2ccccc2)C1=O)N1CCN(CCO)CC1
> 100 µM: TGI [1] | TGI [2] | TGI [3] | TGI [4] | TGI [5] | TGI [6] | TGI [7] | TGI [8] | TGI [9] | TGI [10] | TGI [11] | TGI [12] | TGI [13] | TGI [14] | TGI [15] | TGI [16] | TGI [17] | TGI [18] | TGI [19] | TGI [20] | TGI [21] | TGI [22] | TGI [23] | TGI [24] | TGI [25] | TGI [26] | TGI [27] | TGI [28] | TGI [29] | TGI [30] | TGI [31] | TGI [32] | TGI [33] | TGI [34] | TGI [35] | TGI [36] | TGI [37] | TGI [38] | TGI [39] | TGI [40] | TGI [41] | TGI [42] | TGI [43] | TGI [44] | TGI [45] | TGI [46] | TGI [47] | TGI [48] | TGI [49] | TGI [50] | TGI [51] | TGI [52] | TGI [53]

NC(N)=Nc1nc2ccccc2o1
inactive: GI50 [1] > 100 µM | GI50 [2] > 100 µM | GI50 [3] > 100 µM | GI50 [4] > 100 µM | GI50 [5] > 100 µM | GI50 [6] > 100 µM | GI50 [7] > 100 µM | GI50 [8] > 100 µM | GI50 [54] > 100 µM | GI50 [9] > 100 µM | GI50 [10] > 100 µM | GI50 [12] > 100 µM | GI50 [13] > 100 µM | GI50 [14] 49.2 µM | GI50 [55] > 100 µM | GI50 [15] > 100 µM | GI50 [16] > 100 µM | GI50 [17] > 100 µM | GI50 [18] > 100 µM | GI50 [19] > 100 µM | GI50 [21] > 100 µM | GI50 [56] > 100 µM | GI50 [23] > 100 µM | GI50 [24] > 100 µM | GI50 [25] > 100 µM | GI50 [26] > 100 µM | GI50 [27] > 100 µM | GI50 [28] > 100 µM | GI50 [29] > 100 µM | GI50 [30] > 100 µM | GI50 [31] > 100 µM | GI50 [32] 79.4 µM | GI50 [33] > 100 µM | GI50 [34] > 100 µM | GI50 [35] > 100 µM | GI50 [36] > 100 µM | GI50 [37] > 100 µM | GI50 [38] > 100 µM | GI50 [39] > 100 µM | GI50 [40] 21.2 µM | GI50 [41] > 100 µM | GI50 [42] > 100 µM | GI50 [43] > 100 µM | GI50 [44] > 100 µM | GI50 [46] > 100 µM | GI50 [47] > 100 µM | GI50 [49] > 100 µM | GI50 [50] > 100 µM | GI50 [51] > 100 µM | GI50 [52] > 100 µM | GI50 [57] > 100 µM | GI50 [53] > 100 µM | GI50 [58] > 100 µM
> 100 µM: TGI [1] | TGI [2] | TGI [3] | TGI [4] | TGI [5] | TGI [6] | TGI [7] | TGI [8] | TGI [54] | TGI [9] | TGI [10] | TGI [12] | TGI [13] | TGI [14] | TGI [55] | TGI [15] | TGI [16] | TGI [17] | TGI [18] | TGI [19] | TGI [21] | TGI [56] | TGI [23] | TGI [24] | TGI [25] | TGI [26] | TGI [27] | TGI [28] | TGI [29] | TGI [30] | TGI [31] | TGI [32] | TGI [33] | TGI [34] | TGI [35] | TGI [36] | TGI [37] | TGI [38] | TGI [39] | TGI [40] | TGI [41] | TGI [42] | TGI [43] | TGI [44] | TGI [46] | TGI [47] | TGI [49] | TGI [50] | TGI [51] | TGI [52] | TGI [57] | TGI [53] | TGI [58]

OC(c1cc2cc(Cl)ccc2c2cc(C(F)(F)F)ccc12)C1CCCCN1 (stereo not given)
3.69 µM: TGI [18]
inactive: GI50 [9] 1.48 µM | GI50 [16] 1.69 µM | GI50 [18] 1.96 µM | GI50 [22] 2.21 µM | GI50 [26] 1.9 µM | GI50 [32] 1.59 µM | GI50 [33] 1.42 µM | GI50 [58] 1.92 µM
2.94 µM: TGI [9]
2.97 µM: TGI [33]
3.37 µM: TGI [26]
4.92 µM: TGI [22]
3.06 µM: TGI [32]
3.72 µM: TGI [58]
3.14 µM: TGI [16]
